Broadly, the Ki is a dissociation constant, usually derived from enzyme kinetics or from competition with a known ligand. The low end stands for tighter binding, the high end for weaker binding. As a reminder, the IC50 is the concentration that inhibits the measured activity by half. A higher IC50 goes with weaker potency in that assay.

The structures appear in SMILES notation. A value given as a limit tells only on which side of the number the result lay.

The target of assay [1] is T1, 5-hydroxytryptamine receptor 1A (Rattus norvegicus, UniProt P19327).
T1 sequence (P19327 whole entry): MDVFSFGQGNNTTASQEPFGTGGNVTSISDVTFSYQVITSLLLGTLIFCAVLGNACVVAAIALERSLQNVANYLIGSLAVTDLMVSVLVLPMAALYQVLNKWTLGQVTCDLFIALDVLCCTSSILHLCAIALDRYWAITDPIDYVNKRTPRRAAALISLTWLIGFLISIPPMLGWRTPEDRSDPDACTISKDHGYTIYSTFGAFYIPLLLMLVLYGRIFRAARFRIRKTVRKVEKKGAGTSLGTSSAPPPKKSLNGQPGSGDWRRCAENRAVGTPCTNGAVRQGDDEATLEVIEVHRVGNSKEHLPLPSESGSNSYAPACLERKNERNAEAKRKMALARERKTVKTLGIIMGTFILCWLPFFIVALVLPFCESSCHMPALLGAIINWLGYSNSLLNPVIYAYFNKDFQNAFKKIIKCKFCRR
The assay is described as follows: Displacement of [3H]8-OH-DPAT from 5-hydroxytryptamine 1A receptor of rat cerebral cortex membranes. It is filed as cell membranes, Membrane.

The target in assay [2] is T2, Serotonin 3 (5-HT3) receptor (Rattus norvegicus, UniProt P35563+Q9JJ16).
T2 sequence (P35563 whole entry): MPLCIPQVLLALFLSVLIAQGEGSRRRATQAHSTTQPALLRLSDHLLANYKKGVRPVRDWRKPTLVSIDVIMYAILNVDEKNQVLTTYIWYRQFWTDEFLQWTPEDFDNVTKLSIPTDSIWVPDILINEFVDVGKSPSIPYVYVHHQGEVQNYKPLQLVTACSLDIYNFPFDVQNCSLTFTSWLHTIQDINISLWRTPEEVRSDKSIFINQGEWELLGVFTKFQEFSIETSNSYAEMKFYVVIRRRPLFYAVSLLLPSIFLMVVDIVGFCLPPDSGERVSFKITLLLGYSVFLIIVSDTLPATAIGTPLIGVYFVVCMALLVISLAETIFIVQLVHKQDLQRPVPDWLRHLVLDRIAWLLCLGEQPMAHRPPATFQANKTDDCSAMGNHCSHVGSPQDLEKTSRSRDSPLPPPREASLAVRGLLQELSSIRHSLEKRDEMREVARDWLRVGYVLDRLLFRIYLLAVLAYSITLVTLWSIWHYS
T2 sequence (Q9JJ16 whole entry): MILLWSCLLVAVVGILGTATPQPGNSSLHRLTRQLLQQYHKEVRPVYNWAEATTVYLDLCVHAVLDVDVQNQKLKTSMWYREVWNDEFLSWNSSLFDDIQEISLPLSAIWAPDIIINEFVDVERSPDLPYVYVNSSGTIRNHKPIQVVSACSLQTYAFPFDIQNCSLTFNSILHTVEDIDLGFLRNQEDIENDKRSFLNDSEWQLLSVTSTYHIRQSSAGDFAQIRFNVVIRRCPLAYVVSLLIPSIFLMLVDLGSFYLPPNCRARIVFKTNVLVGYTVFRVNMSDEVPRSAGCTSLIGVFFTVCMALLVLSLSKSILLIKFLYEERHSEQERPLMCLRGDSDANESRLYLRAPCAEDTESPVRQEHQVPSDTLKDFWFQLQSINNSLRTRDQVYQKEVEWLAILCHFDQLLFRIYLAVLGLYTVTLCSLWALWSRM
As to the kind of experiment: Binding affinity for 5-HT3 receptor by displacement of [3H]-LY 278584 in rat cerebral cortex membranes. The class given is cell membranes, Membrane. (In general: In a radioligand displacement assay an active substance lowers the binding of a labelled ligand.)

Assay [3] is filed under the species Cavia porcellus. The assay is described as follows: Blockade of isolated longitudinal muscle myenteric plexus contraction from guinea-pig ileum. The class given is functional. The following applies: Muscle tissue.

Take `O=C(NC1CN2CCC1CC2)c1cccc2nc(CN3CCN(c4cccc5nc[nH]c45)CC3)[nH]c12` (centres undefined): the Ki was 148 nM in assay [1] and above 1000 nM in assay [2].
For `CCCCOc1ccccc1N1CCN(Cc2nc3c(C(=O)NC4CN5CCC4CC5)cccc3[nH]2)CC1` (centres undefined), the Ki in assay [1] is 45.9 nM; in assay [2], 15.1 nM.
For `CC(C)Oc1ccccc1N1CCN(Cc2nc3cccc(C(=O)NC4CN5CCC4CC5)c3[nH]2)CC1` (centres undefined) the same measures were 34.4 nM and 62.1 nM.
In turn, `Cc1nccn1CC1CCc2c(c3ccccc3n2C)C1=O` (centres undefined) [ONDANSETRON] registered an IC50 in assay [3] of 240 nM.
Take `O=C(NC1CN2CCC1CC2)c1cccc2[nH]c(CN3CCN(c4cccc5ccccc45)CC3)nc12` (centres undefined): the Ki in assay [1] is above 1000 nM; in assay [2] it was 32.5 nM.
Take `O=C(NC1CN2CCC1CC2)c1cccc2nc(CN3CCN(c4ccccc4)CC3)[nH]c12` (centres undefined): the Ki in assay [1] is above 1000 nM; in assay [2], 23.1 nM.
For `O=C(NC1CN2CCC1CC2)c1cccc2nc(CN3CCN(c4cccc(C(F)(F)F)c4)CC3)[nH]c12` (centres undefined) the same measures were above 10000 nM and 23.9 nM.
For `CCCOc1ccccc1N1CCN(Cc2nc3c(C(=O)NC4CN5CCC4CC5)cccc3[nH]2)CC1` (centres undefined) the same measures were 56.1 nM and 24.6 nM.
Consider `O=C(NC1CN2CCC1CC2)c1cccc2[nH]c(CN3CCN(c4cccc(Cl)c4)CC3)nc12` (centres undefined), for which the Ki in assay [1] was above 10000 nM; in assay [2] it was 18.3 nM.
`O=C(NC1CN2CCC1CC2)c1cccc2[nH]c(CN3CCN(c4ccc5c(c4)OCO5)CC3)nc12` (centres undefined): the Ki in assay [1] was 467 nM; in assay [2], 24 nM.
For the molecule `CCOc1ccccc1N1CCN(Cc2nc3c(C(=O)NC4CN5CCC4CC5)cccc3[nH]2)CC1` (centres undefined), the values for the Ki in assay [1] and in assay [2] were 18 nM and 27.2 nM, respectively. In assay [3], this molecule displayed an IC50 of 190 nM.
Regarding `COc1ccccc1N1CCN(Cc2nc3cccc(C(=O)NC4CN5CCC4CC5)c3[nH]2)CC1` (centres undefined), the Ki came out at 150 nM in assay [1] and 10.3 nM in assay [2].

Values taken from ChEMBL document CHEMBL1136226, “Design and synthesis of new benzimidazole-arylpiperazine derivatives acting as mixed 5-HT1A/5-HT3 ligands” (Bioorg Med Chem Lett, 2003).
